In paper PMC12561670, “Isolation of Dual-Active Drugs with Anticancer and Antibacterial Activities That Target Both Tubulin and FtsZ” (Antibiotics, 2025):
In brackets after ≈: the same amount, converted by molar mass. Counter-ions that a name gives are not always drawn. Like-named read-outs stand apart in the source and are kept apart here.

What was measured:
[1] = tested on: E. coli (ATCC 8739); test: MIC, broth microdilution; type: cell-based; details: Escherichia coli, read-out: MIC E. coli (ATCC 8739)
[2] = tested on: S. aureus (ATCC 6538); test: MIC, broth microdilution; type: cell-based; details: Staphylococcus aureus, read-out: MIC S. aureus (ATCC 6538)
[3] = tested on: P. aeruginosa (DSM 939); test: MIC, broth microdilution; type: cell-based; details: Pseudomonas aeruginosa, read-out: MIC P. aeruginosa (DSM 939)
[4] = tested on: B. subtilis (CICC 21164); test: MIC, broth microdilution; type: cell-based; details: Bacillus subtilis, 18 h, read-out: MIC B. subtilis (CICC 21164)
Experimental: MIC assays were carried out by employing the broth microdilution method in accordance with Clinical and Laboratory Standards Institute (CLSI) guidelines. E. coli BNCC337004, S. aureus BNCC336423, P. aeruginosa BNCC337099, and B. subtilis CICC 21164 were applied for the MIC detection. Mueller–Hinton broth (MHB) was used in bacterial culture, and log-phase bacteria were diluted into a 0.5 McFarland Standard suspension, which was then diluted 1000 times again. Subsequently, 100 μL of the obtained bacterial suspension was placed into each well of 96-well microtiter plates, along with 2-fold serial dilutions of compounds (512, 256, 128, 64, 32, 16, 8, 4, 2, 1, 0.5, 0 μM). The microtiter plates were incubated aerobically for 18 h at 37 °C. The MIC was defined as the lowest drug concentration at which no visible turbidity was observed. All experiments are conducted in three parallel.

[5] = tested on: S. aureus BNCC336423; test: Time–killing curve; type: cell-based; details: S. aureus BNCC336423, concentrations of 4× the MIC or greater
Experimental: S. aureus BNCC336423 was employed for the time–killing curve study. […] Meanwhile, DMSO with an equivalent volume was added to the vehicle control tube. The cultures were then subjected to shaking incubation at 37 °C. Subsequently, cultures were taken out at predetermined time intervals (0, 1, 2, 4, 6, 8, and 24 h), centrifuged at 16,000×g for 3 min, and diluted to an appropriate multiple. These diluted samples were then plated onto Tryptic Soy Agar (TSA) plates for enumeration. Following a 24 h incubation period at 37 °C, colonies on the TSA plates were counted for the CFU/mL, thereby providing insights into the time-dependent bactericidal activity of the tested compounds.

[6] = molecular target: T1, FtsZ (Staphylococcus aureus, UniProt P0A031); test: Sedimentation assay of FtsZ polymerization; type: biochemical; details: 50 μM compound, 5 μM FtsZ, 37 °C 30 min
T1 construct: His tag; made in house; host or cells: E. coli BL21(DE3)
T1 sequence (P0A031 1-390): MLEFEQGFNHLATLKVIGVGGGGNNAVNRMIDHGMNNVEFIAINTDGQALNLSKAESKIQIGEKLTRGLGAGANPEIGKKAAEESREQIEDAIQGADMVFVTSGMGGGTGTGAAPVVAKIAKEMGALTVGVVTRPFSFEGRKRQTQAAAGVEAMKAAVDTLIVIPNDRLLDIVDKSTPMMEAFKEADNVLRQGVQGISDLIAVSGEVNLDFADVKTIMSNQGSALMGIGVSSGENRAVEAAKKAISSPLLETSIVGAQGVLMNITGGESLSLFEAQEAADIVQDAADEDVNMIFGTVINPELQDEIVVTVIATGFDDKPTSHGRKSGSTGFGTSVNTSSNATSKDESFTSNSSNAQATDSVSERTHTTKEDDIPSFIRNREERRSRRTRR
Experimental: Sedimentation assay was also conducted for the influence of compounds on FtsZ polymerization. FtsZ (5 μM) was polymerized in a buffer containing 25 mM Pipes buffer (pH 6.8) and 3 mM MgSO4 in the […] of DMSO or compounds (50 μM). After the addition of 4 mM GTP, the sample was instantly placed at 37 °C for 30 min. Then, the polymers were collected by centrifuging for 30 min at 25 °C. The protein concentration in the supernatant was determined using the Bradford quantification method, with bovine serum albumin (BSA) as the standard. The experiment was performed in triplicate, and the average absorbance is shown.

[7] = tested on: bovine brain tubulin; test: Inhibition of tubulin polymerization; type: biochemical; details: 10 μM bovine brain tubulin, 20 min; read-out: IC50 ± SD Tubulin (inhibition of tubulin polymerization)
Experimental: Compounds with a certain concentration were pre-incubated with 10 μM bovine brain tubulin in glutamate buffer at 30 °C, and then cooled to 0 °C. The absorbance of 350 nm was immediately measured at 30 °C, as soon as the addition of 0.4 mM GTP. The absorbance would be detected continuously for 20 min. The IC50 was defined as the compound concentration that inhibited tubulin polymerization by 50% during 20 min.

[8] = Cytotoxicity, CCK8; type: cell-based; details: human
Experimental: The absorbance of 450 nm was measured in an ELISA reader (BioTek-Synergy 4, USA). Then, cell viability was calculated, and the corresponding images were drawn with GraphPad Prism 9.

[9] = molecular target: T2, S. aureus FtsZ (Staphylococcus aureus, UniProt P0A031); test: FtsZ polymerization assay (A340); type: biochemical; details: 50 μM compound, 5 µM FtsZ, 4 mM GTP, vs DMSO
T2 construct: His tag; made in house; host or cells: E. coli BL21(DE3)
T2 sequence (P0A031 1-390): T1 sequence (P0A031 1-390)
Experimental: The effect of compounds on S. aureus FtsZ polymerization was monitored by employing a microtiter plate-based spectrophotometric assay method, and the reactions were conducted in flat-bottomed 96-well microtiter plates. The degree of FtsZ polymerization was reflected by the corresponding changes in absorbance at 340 nm (A340). […] The polymerization reaction began immediately once 4 mM GTP was added, and then the polymerization was continuously monitored at 25 °C for 60 min by measuring A340 in BioTek-Synergy4 multifunctional enzyme-linked immunosorbent assay (ELISA) reader.

[10] = tested on: B. subtilis; test: Phase-contrast microscopy, cell division inhibition; type: cell-based; details: 64 μM, 4 h
Experimental: Cell Division Inhibitory Screening Assay Cell division inhibitory activity of compounds was conducted as below. […] Afterwards, 1 mL of the sample was centrifuged at 15,000× g for 3 min at room temperature, and the bacterial pellets were washed with 1 mL of PBS before re-centrifugation. The final bacterial pellets obtained were resuspended in 5 mL PBS. 20 μL of bacterial suspension was transferred to slides for microscopy. Cell morphology was estimated by using the phase-contrast method of Olympus IX71 microscopy (Olympus Corporation, Tokyo, Japan) with 400× magnification.

[11] = tested on: E. coli; test: In vivo antibacterial activity, mouse peritoneal infection; parameters: species or system CD-1 male mice
From the text: SPF grade CD-1 male mice weighing 30 ± 3 g were purchased from Shanghai Slake Experimental Animal Co., Ltd. (Shanghai, China). […] Immediately following this, the mice were intraperitoneally injected with the test compounds. Each experimental group consisted of five mice, with each compound being tested at two distinct concentration gradients (determined based on the minimum inhibitory concentration, MIC). A separate group received physiological saline as a negative control. The subsequent assessment focused on evaluating the therapeutic potential of these drugs against bacterial infections. On the first and third days post-administration, 2 mL of sterile physiological saline was injected into the peritoneal cavity of each mouse. After a gentle two-minute dilution under sterile conditions, the abdominal fluid was extracted for bacterial enumeration using the plate counting method. Furthermore, the clinical manifestations of each mouse group, encompassing mental status, appetite, and other relevant parameters, were meticulously observed over a seven-day period. On the seventh day, the mice were euthanized, and a thorough macroscopic examination was conducted to assess the pathological changes in various vital organs.

[12] = ATCC8739, broth microdilution, 18 h, 37 °C
[13] = ATCC6538, broth microdilution, 18 h, 37 °C
[14] = DSM939, broth microdilution, 18 h, 37 °C
[15] = 293T cells (renal epithelial cells), read-out: cell viability HT293 (293T)
[16] = LO2 cells (normal hepatic cells), read-out: cell viability LO2

Row | MIC [1, 12] [µM] | MIC [2, 13] [µM] | MIC [3, 14] [µM] | MIC ([4]; broth microdilution, 37 °C) [µM] | Compound | logs of kill in time–kill [5] [logs] | effect on FtsZ sedimentation (polymerization amount) [6] | MIC ([1]; ATCC8739, 18 h) [µM] | MIC ([2]; ATCC6538, 18 h) [µM] | MIC ([3]; DSM939, 18 h) [µM] | IC50 [7] [µM] | viability at 12 h, 100 µM ([8]; read-out: cell viability HT293 (293T)) [%] | viability at 12 h, 100 µM ([8]; read-out: cell viability LO2) [%] | MIC [4] [µM] | effect on FtsZ polymerization (A340) [9] | viability at 12 h, 100 µM [8, 15] [%] | viability at 12 h, 100 µM [8, 16] [%] | cell morphology of B. subtilis (elongation) [10] | bacterial count of peritoneal fluid ([11]; mice i.p. E. coli, i.p. compound, days 1 and 3) | clinical presentation of infected mice ([11]; seven-day observation)
1 | – | – | – | – | C[C@]12CC[C@@H]3c4ccc(OC(=O)N(CCCl)CCCl)cc4CC[C@H]3[C@@H]1CC[C@@H]2O [Compound 56, Estramustine] | – | negligible effects | 128 (≈ 56.4 µg/mL) | 128 (≈ 56.4 µg/mL) | 32 (≈ 14.1 µg/mL) | 38.66 ± 0.28 | 98 | 99 | 64 (≈ 28.2 µg/mL) | minimal impact on the dynamics of FtsZ polymerization | – | – | – | – | –
2 | 16 (≈ 5.43 µg/mL) | 8 (≈ 2.72 µg/mL) | 8 (≈ 2.72 µg/mL) | 64 (≈ 21.7 µg/mL) | CC(C)CNc1ccnc(NCc2csc(-c3ccccc3)n2)n1 [Compound 60, KHS 101] | – | varying degrees of inhibition on FtsZ polymerization | – | – | – | 5.62 ± 0.12 | – | – | – | apparent inhibitory tendencies towards FtsZ polymerization | 89 | 90 | – | – | –
3 | 64 | 8 | 32 | 16 | CC[C@]1(O)C[C@H]2CN(CCc3c([nH]c4ccccc34)[C@@](C(=O)OC)(c3cc4c(cc3OC)N(C=O)[C@H]3[C@@](O)(C(=O)OC)[C@H](OC(C)=O)[C@]5(CC)C=CCN6CC[C@]43[C@@H]65)C2)C1 [Compound 6, Vincristine sulfate] | – | negligible effects | – | – | – | – | – | – | – | – | – | – | – | – | –
5 | 32 | 4 | 2 | 64 | CN(C)c1ccc2c(c1)Sc1cc(N(C)C)ccc1N2 [Compound 33, Leucomethylene blue mesylate] | 3 | varying degrees of inhibition on FtsZ polymerization | – | – | – | 74.46 ± 0.25 | – | – | – | minimal impact on the dynamics of FtsZ polymerization | 80 | 65 | – | – | –

Row | Compound | MIC [1, 12] [µM] | MIC [2, 13] [µM] | MIC [3, 14] [µM] | MIC ([4]; broth microdilution, 37 °C) [µM] | logs of kill in time–kill [5] [logs] | effect on FtsZ sedimentation (polymerization amount) [6] | MIC ([1]; ATCC8739, 18 h) [µM] | MIC ([2]; ATCC6538, 18 h) [µM] | MIC ([3]; DSM939, 18 h) [µM] | IC50 [7] [µM] | viability at 12 h, 100 µM ([8]; read-out: cell viability HT293 (293T)) [%] | viability at 12 h, 100 µM ([8]; read-out: cell viability LO2) [%] | MIC [4] [µM] | effect on FtsZ polymerization (A340) [9] | viability at 12 h, 100 µM [8, 15] [%] | viability at 12 h, 100 µM [8, 16] [%] | cell morphology of B. subtilis (elongation) [10] | bacterial count of peritoneal fluid ([11]; mice i.p. E. coli, i.p. compound, days 1 and 3) | clinical presentation of infected mice ([11]; seven-day observation)
6 | CN(C)c1ccc2nc3ccc(=[N+](C)C)cc-3sc2c1 [Compound 71, Methylene Blue] | 64 | 2 | 64 | 32 | 3 | negligible effects | – | – | – | – | – | – | – | – | – | – | – | – | –
7 | COc1ccc2cc3[n+](cc2c1OC)CCc1cc2c(cc1-3)OCO2 [Compound 82, Berberine] | 64 | 4 | 8 | 64 | – | varying degrees of inhibition on FtsZ polymerization | – | – | – | – | – | – | – | robust inhibitory activity against FtsZ polymerization | – | – | varying degrees of elongation | substantially mitigated | exhibited vitality, maintained a healthy appetite
